Results published in patent US4713200A, “Pesticidal compounds” (Burroughs Wellcome Co., priority 1984, dated 1987).

Legend:
Type in all cases: in vivo
[1] = test system: female Musca domestica (WRL strain); experiment: Lethal activity against house flies (topical application, with and without piperonyl butoxide); conditions: mortality after 48 hrs; for LD50 (synergised): with synergist 6 μg piperonyl butoxide per insect
Experimental: The test compound was applied with the application of the synergist (6 μg piperonyl butoxide (PB) per insect). Mortality was assessed after 48 hrs.

[2] = test system: female Culex quinquefasciatus; experiment: Knockdown activity against mosquitoes (wind tunnel spray); conditions: for KD10 min % effect: 10 min; for Kill: 24 hrs
Experimental: The knockdown activity of compounds was assessed as follows: Caged female Culex quinquefasciatus were sprayed in a wind tunnedl with 0.2 ml of a solution of the compound in odourless petroleum distillate (OPD)/dichloromethane (80/20) and knockdown was assessed at minute intervals for 10 mins. The insects were transferred to a holding cup and kept for 24 hrs with sugar/water. Mortalities were assessed at 24 hrs.

[3] = test system: Mixed sex Musca domestica; experiment: Knockdown activity against houseflies (Kearns and March chamber spray); conditions: for KD10 min % effect: 10 min
Experimental: Mixed sex Musca domestica were held in a Kearns and March chamber and sprayed with 0.2 ml of a solution of the compound in OPD/dichloromethane. Knockdown was assessed at 1 min. intervals for 10 mins.

Sitophilus granarius = experiment: Activity against grain beetles (deposits on grain); conditions: 6 days
Experimental: Mortality was assessed after 6 days.

male Blattella germanica = experiment: Activity against cockroaches (deposit on glass)
Experimental: Knockdown was assessed after 10 and 60 minutes and mortality after 1 day and 6 days.

[4] = test system: third instar larvae of Aedes aegypti; experiment: Activity against mosquito larvae (aqueous suspension); conditions: 2.5 ppm cpd (+ 12.5 pb)
[5] = test system: Mustard Beetle (Phaedon cochleariae) second-instar larvae; experiment: Activity against mustard beetle larvae (topical application)
Experimental: Second-instar larvae were used in all the tests and compounds were applied topically to the dorsal surface of the abdomen, using a microapplicator. Between 10 and 33 larvae were used at each concentration of the chemicals. Analar acetone and Analar butanone were used as solvents. In the first tests a 0.5 μl droplet was applied to each larva but after this the droplet size was increased to 1 μl as the larvae were unaffected by the solvents.
After treatment, all the larvae (usually 20) tested at a particular concentration were confined together on turnip leaves. The leaves were placed on damp filter paper in a petri dish and covered with a second layer of filter paper in the lid of the dish.
The petri dishes were maintained in an incubator at 20° C. and 16 h light. The turnip leaves were replaced as they were eaten by the larvae.
The larvae were assessed at intervals, from 1 h to 216 h after treatment. The following categories were used to classify the larvae:
i. Healthy larvae which were feeding and moved around the dish

[6] = test system: fully engorged female Boophilus microplus, susceptible strain; experiment: Activity against the cattle tick, injection; conditions: 10 μg/tick, 14 days
Experimental: The compound was supplied as a […] solution in DMSO:Acetone (1:1). Administration of the compound was by means of a microapplicator which was preset to deliver 0.2 μl of solution. The compound in solution was injected into fully engorged female Boophilus microplus, susceptible strain, at a site just lateral to the mouthparts at the rate of 10 μg/tick. Reducing the concentration reduced the dose delivered.
After injection the ticks were maintained at 24° C. and 85% RH for 14 days. At this time the ticks were examined for the presence of viable eggs which gave the percent inhibition of reproduction (% IR).

[7] = 0.03 % cpd (0.15 piperonyl butoxide)
[8] = 0.3 % cpd (1.5 piperonyl butoxide)
[9] = 0.1 % cpd (piperonyl butoxide entry printed "^")
[10] = 500 μg/ml, 1 hour after treatment
[11] = 500 μg/ml, 20 hours after treatment
[12] = 1000 μg/ml, 1 hour after treatment
[13] = 1000 μg/ml, 20 hours after treatment
[14] = 0.1 % cpd (0.5 piperonyl butoxide)

SMILES: CC(C)CNC(=O)/C=C/C=C/CCCCOCc1cccc(C(F)(F)F)c1 [Example 2, N-isobutyl 9-(3'trifluoromethylbenzyloxy)-(2E,4E)-nonadienamide]
- LD50 (synergised) [1]: 0.2 μg/fly
- kT50 [2, 7]: 8.6 min
- KD10 min % effect [2, 7]: 56%
- Kill [2, 7]: 4%
- kT50 [2, 8]: 1.2 min
- KD10 min % effect [2, 8]: 100%
- Kill [2, 8]: 71%
- kT50 [3, 9]: 6.1 min
- KD10 min % effect [3, 9]: 86%
- % mortality (Sitophilus granarius; 20 ppm cpd (+ 100 pb)): 84%
- % mortality 1 day (male Blattella germanica; 1400 mg/m^2 (+ 1400 pb)): 50%
- % mortality 6 day (male Blattella germanica; 1400 mg/m^2 (+ 1400 pb)): 50%
- % mortality [4]: 100%
- Dead (number of larvae) [5, 10]: 0
- Healthy (number of larvae) [5, 10]: 0
- Paralysed (number of larvae) [5, 10]: 33
- Dead (number of larvae) [5, 11]: 24
- Healthy (number of larvae) [5, 11]: 9
- Paralysed (number of larvae) [5, 11]: 0
- Dead (number of larvae) [5, 12]: 0
- Healthy (number of larvae) [5, 12]: 0
- Paralysed (number of larvae) [5, 12]: 33
- Dead (number of larvae) [5, 13]: 29
- Healthy (number of larvae) [5, 13]: 4
- Paralysed (number of larvae) [5, 13]: 0

SMILES: CC(C)CNC(=O)/C=C/C=C/CCCCCCOCc1cc(C(F)(F)F)cc(C(F)(F)F)c1 [Example 4, N-isobutyl 11-(3',5'-bis-trifluoromethylbenzyloxy)-(2E,4E)-undecadienamide]
- LD50 (synergised) [1]: 0.025 μg/fly
- LD50 (unsynergised) ([1]; without synergist): 0.12 μg/fly
- % mortality (Sitophilus granarius; 50 ppm cpd (+ 500 pb)): 100%
- % mortality 1 day (male Blattella germanica; 700 mg/m^2 (+ 700 pb)): 32%
- % mortality 6 day (male Blattella germanica; 700 mg/m^2 (+ 700 pb)): 32%

SMILES: CC(C)CNC(=O)/C=C/C=C/CCCCCOCc1ccccc1 [Example 8, N-iso-butyl 10-(benzyloxy)-(2E,4E)-decadienamide]
- LD50 (synergised) [1]: > 5 μg/fly

SMILES: CC(C)CNC(=O)/C=C/C=C/CCCCOCCOc1cc(Cl)cc(Cl)c1 [Example 66, N--isobutyl 9-(2-(3',5'-dichlorophenoxy)-ethoxy)-nona-2E, 4E-dienamide]
- kT50 [2, 14]: 1.2 min
- KD10 min % effect [2, 14]: 96%
- Kill [2, 14]: 40%
- kT50 [3, 14]: 5.1 min
- KD10 min % effect [3, 14]: 96%

SMILES: CC(C)C(C)NC(=O)/C=C/C=C/CCCCOCc1ccc(OC(F)(F)F)cc1 (stereo not shown) [Example 85]
- % IR (percent inhibition of reproduction) [6]: 100%
- mortality at 10 µg/tick ([6]; Rhipicephalus microplus, 336 h, read-out: % kill): 50%

SMILES: CC(C)ONC(=O)/C=C/C=C/CCCCOCc1cccc(C(F)(F)F)c1 [Example 89]
- LD50 (synergised) [1]: > 5 μg/fly

SMILES: CC(NC(=O)/C=C/C=C/CCCCCCOCc1cc(C(F)(F)F)cc(C(F)(F)F)c1)C(C)(C)C (stereo not shown) [Example 108]
- LD50 (synergised) [1]: 0.09 μg/fly

SMILES: CC1(C)CC1NC(=O)/C=C/C=C/CCCCCCOCc1cc(C(F)(F)F)cc(C(F)(F)F)c1 (stereo not shown) [Example 109]
- LD50 (synergised) [1]: 0.09 μg/fly

SMILES: CC(C)CNC(=O)/C=C/C=C/CCCCC(=O)Cc1cccc(C(F)(F)F)c1 [Example 122, N--Isobutyl 11-(3-trifluoromethylphenyl)-10-oxo-undeca-2E,-dienamide]
- LD50 (synergised) [1]: > 1.5 μg/fly

SMILES: CCC(CCC/C=C/C=C/C(=O)NCC(C)C)N(C)Cc1ccccc1 (stereo not shown) [Example 126, N--Isobutyl N'--methyl-N'--benzyl-9-aminoundeca-2E, 4E-dienamide]
- LD50 (synergised) [1]: > 20 μg/fly
